What was measured:
Format in all cases: cell-based, human
[1] = test system: DU145 prostate cancer cells; test: NK cell CD107a / IFNγ flow cytometry against DU145; conditions: normal donor and prostate cancer patient NK cells, vs controls
Excerpt: (§1) FIG. 15A is a graph showing pooled analysis of proportion of NK cells from healthy donors or prostate cancer patients expressing CD107a+ (top) or IFNγ (bottom) against C4-2 targets (N=9 for healthy donors, N=3 for patients). FIG. 15B is a graph showing pooled analysis of proportion of NK cells from healthy donors or prostate cancer patients expressing CD107a+ (top) or IFNγ (bottom) against DU145 targets (N=9 for healthy donors, N=3 for patients). FIG. 15C is a graph showing pooled analysis of proportion of NK cells from healthy donors or prostate cancer patients expressing CD107a+ (top) or IFNγ (bottom) against LNCaP targets (N=9 for healthy donors, N=3 for patients). FIG. 15D is a graph showing pooled analysis of proportion of NK cells from healthy donors or prostate cancer patients expressing CD107a+ (top) or IFNγ (bottom) against PC3 targets (N=9 for healthy donors, N=3 for patients). * p<0.05, ** p<0.01, *** p<0.001, and **** p<0.0001.
(§2) ADCC was measured in a flow cytometry assay by evaluating degranulation via CD107a (lysosomal-associated membrane protein LAMP-1) and intracellular IFNγ production. Upon thawing, normal donor and patient-derived PBMCs or ascites cells were rested overnight (37° C., 5% CO2) in RPMI 1640 media supplemented with 10% fetal calf serum (RPMI-10). […] Samples were washed and evaluated in an LSRII flow cytometer (BD Biosciences, San Jose, CA, USA). […]

[2] = test system: PC3 prostate cancer cells; test: NK cell CD107a / IFNγ flow cytometry against PC3; conditions: normal donor and prostate cancer patient NK cells, vs controls
Excerpt: as §1, §2

[3] = test system: MA-148 ovarian cancer cells; test: NK cell CD107a / IFNγ flow cytometry against MA-148; conditions: vs controls
Method: FIG. 29A is a graph illustrating pooled proportion of NK cells from healthy donors expressing CD107a+ (degranulation) against OVCAR8 and MA148 targets. FIG. 29B is a graph illustrating pooled proportion of NK cells from healthy donors expressing IFNγ cytokine production against OVCAR8 and MA148 targets.
Healthy donor or ovarian cancer PBMC cells were incubated with ovarian tumor targets at 2:1 E:T ratio for 4 hrs with 30 nM TriKE or control condition. FIG. 30A is a graph illustrating pooled proportion of NK cells from healthy donors expressing CD107a+ (degranulation) against OVCAR8 targets (N=8). […] FIG. 30I is a graph illustrating that tumor killing was evaluated using IncuCyte imaging assay. […] The percentage of Live (Nuclight Red+Caspase 3/7−) tumor cells was quantified over a 48-h period and normalized to tumor alone. Readings were obtained every 15 min (representative of four separate experiments). * p<0.05, ** p<0.01, *** p<0.001, and **** p<0.0001.
ADCC was measured in a flow cytometry assay by evaluating degranulation via CD107a (lysosomal-associated membrane protein LAMP-1) and intracellular IFNγ production. […] Samples were washed and evaluated in an LSRII flow cytometer (BD Biosciences, San Jose, CA, USA).
The ability of cam1615B7-H3 TriKE to mediate NK cell activity against ovarian cancer cells was evaluated. […]

cam1615B7-H3: second-generation TriKE: humanized camelid anti-CD16 VHH, human wild-type IL-15, anti-B7-H3 mAb 376.96 scFv; SEQ ID NO:1
NK cell IFNγ production against DU145 [1]: enhanced | NK cell degranulation (CD107a) against DU145 [1]: enhanced | NK cell IFNγ production against PC3 [2]: enhanced | NK cell degranulation (CD107a) against PC3 [2]: enhanced | NK cell activity against MA-148 ([3]; normal donor NK cells): robust activity | NK cell degranulation against MA-148 ([3]; ovarian-cancer-derived ascites samples): significantly enhanced NK cell degranulation
